Measured values reported in patent publication US20070167412A1, “HALOCOMBSTATINS AND METHODS OF SYNTHESIS THEREOF” (ARIZONA BOARD OF REGENTS, priority 2003, published 2007).
Converted amounts (≈) assume the structure as drawn.

Columns and labels:
[1] = test system: T1, purified tubulin; assay: inhibition of tubulin polymerization (turbidimetry); assay type: biochemical; conditions: 10 μM tubulin, GTP 0.4 mM, 30° C., extent after 20 minutes; read-out: Inhibition of polymerization IC50 ± S.D.
T1 construct: other: 10 μM tubulin, GTP 0.4 mM, 30° C., extent after 20 minutes
Description: Tubulin polymerization was evaluated by turbidimetry at 350 nm using Beckman DU7400/7500 spectrophotometers as described in detail elsewhere. […] Varying concentrations of drug were preincubated with 10 μM:M ([…]) purified tubulin (See Hamel, E., et al., Separation of Active Tubulin and Microtubule-associated Proteins by Ultracentrifiigation and Isolation of a Component Causing the Formation of Microtubule Bundles, Biochemistry 1984, 23, 4173-4184). Samples were chilled on ice, GTP (0.4 mM) was added, and polymerization was followed at 30° C. The parameter measured was extent of the reaction after 20 minutes. Coichicine binding was measured as described in detail previously. Reaction mixtures contained 1.0 μM :M tubulin, 5.0:M, [^3H]colchicine (from Dupont), and inhibitor at 1.0 μM:M. Incubation was for 10 minutes at 37° C.
Tubulin Evaluations: Tubulin polymerization was evaluated by turbidimetry at […] using Beckman DU7400/7500 spectrophotometers as known to one of skill in the art. Varying concentrations of the compound were preincubated with 10 μM. […]

[2] = test system: human umbilical vein endothelial cells (HUVEC); assay: HUVEC growth inhibition, sulforhodamine B assay; assay type: cell-based; conditions: HUVEC
Description: (§1) In vitro Matrigel antiangiogenesis assays were implemented according to the Developmental Therapeutics Program NCI/NIH protocols known to one of skill in the art. Matrigel, a basement membrane matrix, was obtained from BD Biosciences. Growth inhibition and cord formation assays were Conducted using human umbilical vein endothelial cells obtained from GlycoTeCh. HUVEC cells were grown in EGM-2 medium.
The standard sulforhodamine B assay (see Cancer Cell Line Procedures above) was used to evaluate results using HUVEC cells. IC50 or ED50 (drug concentration causing 50% inhibition) was calculated from the plotted data.

[3] = test system: human umbilical vein endothelial cells (HUVEC); assay: Matrigel cord formation assay; assay type: cell-based; design: key to Lengths of Cords: −: No Cords; +: Small; ++: ˜50% of Control; +++: Same as Control; conditions: 24 hours, compared to untreated controls
Method in brief: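 HUVEC grown in EGM-2, seeded at 2×10^5 cells/ml onto polymerized Matrigel with test compounds. After 24 hours, cord length and junction number imaged and measured relative to untreated controls.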

[4] = test system: human umbilical vein endothelial cells (HUVEC); assay: Matrigel cord formation assay; assay type: cell-based; design: key: −: No Junctions; +: Few; ++: ˜50% of Control; +++: Same as Control; conditions: 24 hours, compared to untreated controls
Description: as §1
An aliquot of sixty microliters was placed in each well of an ice-cold 96-well plate. The plates were then left for 15 minutes at room temperature, then incubated for 30 minutes at 37° C. to permit the matrigel to polymerize. Meanwhile, HUVEC cells were harvested and diluted to a concentration of 2×10^5 cells/ml. A solution of 100 μL containing the compounds to be tested was added next. After 24 hours incubation, pictures were taken for each concentration using an inverted Nikon Diaphot microscope and D100 digital camera. Drug effect was assessed, compared to untreated controls, by measuring the length of cords formed and number ofjunctions.

`COc1ccc(/C=C\c2cc(I)c(OC)c(OC)c2)cc1O` [Compound 14a, 3-Iodo-4,4′,5-trimethoxy-3′-hydroxy-z-stilbene] was tested, and the IC50 [1] was 1600 ± 200 nM, the “Relative % Growth” value ([2]; 0.00001 μg/ml) was 90% and the “Relative % Growth” value ([2]; 0.0001 μg/ml) was 18%. The “Relative % Growth” value ([2]; 0.001 μg/ml) was 14%, the “Relative % Growth” value ([2]; 0.01 μg/ml) was 14% and the GI50 ([2]; Homo sapiens, Table V, read-out: Human Umbilical Vein Endothelial Cell (HUVEC) Inhibition Values (GI50)) was 0.04 ng/mL (≈ 0.097 nM). For the same compound, the “Lengths of Cords” value ([3]; 0.001 μg/ml) was “+”, the “Lengths of Cords” value ([3]; 0.01 μg/ml) was “−” and the Number of junctions ([4]; 0.001 μg/ml) was “+”. The Number of junctions ([4]; 0.01 μg/ml) was “−”.
